pIC50: −log10 of the molar value. Counter-ions that a name gives are not always drawn.

T1 sequence (O95180 whole entry): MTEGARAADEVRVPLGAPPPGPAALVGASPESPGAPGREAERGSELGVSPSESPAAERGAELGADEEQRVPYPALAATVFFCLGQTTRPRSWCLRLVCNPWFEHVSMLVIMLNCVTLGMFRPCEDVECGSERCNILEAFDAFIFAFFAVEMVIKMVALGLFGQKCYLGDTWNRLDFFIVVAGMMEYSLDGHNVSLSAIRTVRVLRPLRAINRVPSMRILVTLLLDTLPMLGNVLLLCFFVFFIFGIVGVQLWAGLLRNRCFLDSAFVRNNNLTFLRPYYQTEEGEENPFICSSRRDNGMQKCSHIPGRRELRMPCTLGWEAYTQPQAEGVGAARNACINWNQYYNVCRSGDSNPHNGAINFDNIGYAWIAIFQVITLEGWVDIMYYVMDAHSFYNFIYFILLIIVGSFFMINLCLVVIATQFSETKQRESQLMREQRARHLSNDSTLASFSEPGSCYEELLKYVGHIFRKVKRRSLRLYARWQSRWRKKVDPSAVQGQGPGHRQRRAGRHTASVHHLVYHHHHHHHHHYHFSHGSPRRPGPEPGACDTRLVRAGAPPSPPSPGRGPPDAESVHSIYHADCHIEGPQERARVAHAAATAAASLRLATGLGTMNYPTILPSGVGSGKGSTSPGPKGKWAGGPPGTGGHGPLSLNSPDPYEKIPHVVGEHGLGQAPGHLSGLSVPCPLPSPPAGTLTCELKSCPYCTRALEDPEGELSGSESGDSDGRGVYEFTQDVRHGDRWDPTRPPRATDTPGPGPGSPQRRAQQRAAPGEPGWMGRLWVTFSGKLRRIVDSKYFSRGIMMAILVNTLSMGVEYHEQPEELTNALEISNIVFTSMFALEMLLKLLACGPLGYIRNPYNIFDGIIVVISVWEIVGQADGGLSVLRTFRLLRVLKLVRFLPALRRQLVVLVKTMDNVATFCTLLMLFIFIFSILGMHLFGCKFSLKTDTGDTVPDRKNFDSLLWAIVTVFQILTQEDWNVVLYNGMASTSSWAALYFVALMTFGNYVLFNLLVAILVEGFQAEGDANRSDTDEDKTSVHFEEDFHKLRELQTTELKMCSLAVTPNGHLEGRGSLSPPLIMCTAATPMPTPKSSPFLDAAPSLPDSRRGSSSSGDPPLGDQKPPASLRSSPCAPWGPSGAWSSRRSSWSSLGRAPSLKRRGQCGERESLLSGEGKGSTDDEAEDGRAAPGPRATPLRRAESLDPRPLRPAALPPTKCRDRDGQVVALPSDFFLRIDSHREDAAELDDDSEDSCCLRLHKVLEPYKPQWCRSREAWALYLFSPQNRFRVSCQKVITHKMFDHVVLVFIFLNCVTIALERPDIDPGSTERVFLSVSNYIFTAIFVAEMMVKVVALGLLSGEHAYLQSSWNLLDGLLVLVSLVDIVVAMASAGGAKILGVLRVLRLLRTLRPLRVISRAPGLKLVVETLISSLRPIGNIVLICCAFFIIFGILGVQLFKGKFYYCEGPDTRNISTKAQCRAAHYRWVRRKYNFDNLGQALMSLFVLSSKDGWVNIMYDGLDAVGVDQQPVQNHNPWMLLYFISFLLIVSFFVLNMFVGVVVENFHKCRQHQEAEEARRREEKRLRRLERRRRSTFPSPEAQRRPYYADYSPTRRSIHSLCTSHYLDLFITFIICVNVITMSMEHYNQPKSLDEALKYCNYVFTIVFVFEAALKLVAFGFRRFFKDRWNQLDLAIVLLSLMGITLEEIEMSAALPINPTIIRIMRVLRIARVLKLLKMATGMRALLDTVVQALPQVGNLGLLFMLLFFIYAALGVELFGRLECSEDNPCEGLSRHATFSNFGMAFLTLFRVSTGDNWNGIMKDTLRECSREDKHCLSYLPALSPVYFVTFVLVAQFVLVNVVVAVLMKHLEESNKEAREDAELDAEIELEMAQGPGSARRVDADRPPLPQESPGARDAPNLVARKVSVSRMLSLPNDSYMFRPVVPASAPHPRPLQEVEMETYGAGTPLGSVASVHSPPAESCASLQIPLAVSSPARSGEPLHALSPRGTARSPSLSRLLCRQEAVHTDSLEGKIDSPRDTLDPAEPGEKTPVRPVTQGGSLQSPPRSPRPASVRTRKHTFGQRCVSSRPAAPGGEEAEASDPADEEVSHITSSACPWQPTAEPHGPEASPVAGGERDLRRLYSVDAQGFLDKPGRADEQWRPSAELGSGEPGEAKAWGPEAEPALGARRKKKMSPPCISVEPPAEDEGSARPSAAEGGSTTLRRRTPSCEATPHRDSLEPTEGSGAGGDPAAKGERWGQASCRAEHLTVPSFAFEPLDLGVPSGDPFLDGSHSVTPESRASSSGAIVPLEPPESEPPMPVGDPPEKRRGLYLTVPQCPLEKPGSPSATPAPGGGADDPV

The first assay concerns the target T1, human Cav3.2 channels (Homo sapiens, UniProt O95180).
T1 construct: expressed in transfected cells; host or cells: HEK293 cells (ATCC No. CRL-1573), plasmid pcDNA3.1(+)
Description: Intracellular calcium concentration measurement (Fluo-4 AM) in stable cells expressing human Cav3.2 channels, buffer A / buffer B. The class given is cell-based. Conditions: Table 1; buffer A, equilibrium potential of potassium −92 mV; read-out: Inhibitory action of buffer A (inactivated state). The text has this:
Construction of Stable Cells Expressing Human Cav3.2 Channels
(1) A sequence produced by incorporating HindIII site and kozak sequence (GCCACC) into the 5′-terminal side of human Cav3.2 channel ORF (Open Reading Frame) gene and incorporating Kpnl site into the 3′-terminal side was incorporated into pcDNA3.1(+) (Thermo-Fisher Scientific, Inc., #V790-20), and the plasmid was transfected into HEK293 cells (ATCC No. CRL-1573) according to the protocol of FuGENE (registered trademark) HD Transfection Reagent (PROMEGA #E2311).
(2) Method for Measuring Intracellular Calcium Concentration
In the present measurement system, buffer A and buffer B having different potassium ion concentrations were used in order to evaluate the state-dependent Cav3.2 inhibitory action of a test compound.
Stable cell line expressing human Cav3.2 channels, which had been produced in (1), was seeded in a 96-well plate using DMEM medium including 10% FBS, and the cells were cultured for 48 hours under the conditions of 37° C. and 5% CO2. Subsequently, the medium was removed, and various wells that had been washed with a base buffer were treated with 80 μL of a fluorescent dye solution containing a mixed liquid of 22 μg of calcium fluorescence indicator Fluo-4 AM (Dojindo Laboratories Co., Ltd., #F311), 20 μL of DMSO, […] of 10% Pluronic F-127 (Thermo-Fisher Scientific, Inc., #P6866), and 4 mL of a base buffer. The cells were left to stand for 45 minutes at room temperature in the dark, and then the cells were washed with buffer A or buffer B. Solutions having various test compound concentrations and respectively containing buffer A or buffer B were added to the respective wells, the respective solutions containing DMSO at the same final concentration as that of the test compound as negative control, or containing the test compound dissolved in 100% DMSO at a final concentration of 0.1%. The cells were left to stand for another 15 minutes at room temperature in the dark, and the cells were analyzed using the following method using a microplate reader, EnVision (PerkinElmer, Inc.). First, the background fluorescence for each well was measured, subsequently an ionophore was added to the well, and the fluorescence of the baseline was measured. Subsequently, buffer A or buffer B containing added KCl at a concentration of 83.8 mM or 91.8 mM was added to each well, and an increase in fluorescence caused by a calcium influx generated by that stimulus was measured for 10 seconds. The percentage inhibition was calculated from the maximum fluorescence increment from the baseline, and the logarithmic value of the test compound concentration and the inhibitory activity were plotted to calculate the IC50 value. The analysis was carried out by measuring the fluorescence at 510 nm emitted when the cells were irradiated with exciting light at 485 nm.
Base buffer: 140 mM NaCl, 5 mM KCl, 1 mM MgCl2, 0.5 mM CaCl2, 10 mM Glucose, and 10 mM HEPES, pH 7.3
Buffer A: Equilibrium potential of potassium: −92 mV
(Calcium assays in cells follow changes in intracellular calcium, usually with a dye or a luminescent sensor.)
On to `C[C@H](NC(=O)C1CC1c1nc2ccccc2[nH]1)c1cnc(OCC(F)(F)F)s1` (single isomer, unassigned) [Example 7B], for which the pIC50 is 5.00 to 6.00.

With `C[C@@H](NC(=O)C1CC1c1nc2ccccc2[nH]1)c1ccc(OCC(F)(F)F)s1` (single isomer, unassigned) [Example 3B], the pIC50 was 5.00 to 6.00.

Turning to `CC(NC(=O)C1CC1c1nc2ccccc2[nH]1)c1cn(C(=O)OC(C)(C)C)c2ccccc12` (stereo not drawn) [Example 10, Trans-3-(1-(2-(1H-benzo[d]imidazol-2-yl)cyclopropanecarboxamido)ethyl)-1H-indole-1-carboxylic acid tert-butyl ester], the pIC50 was 6.00 to 7.00.

`C[C@@H](NC(=O)C1CC1c1nc2ccccc2[nH]1)c1ccc(Br)s1` (single isomer, unassigned) [Example 6A]: the pIC50 is 6.00 to 7.00.

As for `C[C@@H](NC(=O)[C@H]1CCN(CC(=O)NC(C)(C)C)C1)c1ccc(OCC(F)(F)F)s1` [Example 14, (S)-1-(2-(tert-butylamino)-2-oxoethyl)-N—((R)-1-(5-(2,2,2-trifluoroethoxy)thiophen-2-yl)ethyl)pyrrolidine-3-carboxamide hydrochloride], the pIC50 was 5.00 to 6.00.

The assay is the same for the next values; noted with them: Table 1; buffer B, equilibrium potential of potassium −110 mV; read-out: Inhibitory action of buffer B (resting state or closed state).
`C[C@H](NC(=O)C1CC1c1nc2ccccc2[nH]1)c1cnc(OCC(F)(F)F)s1` (single isomer, unassigned) [Example 7B]: the pIC50 was less than 5.00.

For `C[C@@H](NC(=O)C1CC1c1nc2ccccc2[nH]1)c1ccc(OCC(F)(F)F)s1` (single isomer, unassigned) [Example 3B], the pIC50 was 5.00 to 6.00.

As for `CC(NC(=O)C1CC1c1nc2ccccc2[nH]1)c1cn(C(=O)OC(C)(C)C)c2ccccc12` (stereo not drawn) [Example 10, Trans-3-(1-(2-(1H-benzo[d]imidazol-2-yl)cyclopropanecarboxamido)ethyl)-1H-indole-1-carboxylic acid tert-butyl ester], the pIC50 is 6.00 to 7.00.

`C[C@@H](NC(=O)C1CC1c1nc2ccccc2[nH]1)c1ccc(Br)s1` (single isomer, unassigned) [Example 6A]: the pIC50 was 5.00 to 6.00.

As for `C[C@@H](NC(=O)[C@H]1CCN(CC(=O)NC(C)(C)C)C1)c1ccc(OCC(F)(F)F)s1` [Example 14, (S)-1-(2-(tert-butylamino)-2-oxoethyl)-N—((R)-1-(5-(2,2,2-trifluoroethoxy)thiophen-2-yl)ethyl)pyrrolidine-3-carboxamide hydrochloride], the pIC50 is 5.00 to 6.00.

The same assay, now with this note: Tables 2 to 6; buffer A, equilibrium potential of potassium −92 mV; read-out: Inhibitory action of buffer A (inactivated state).
On to `CC(C(=O)NC12CC3CC(CC(C3)C1)C2)N1CC[C@@H](C(=O)N[C@H](C)c2cnc(OCC(F)(F)F)s2)C1` (stereo partly drawn) [Example 47, (3R)-1-(1-((adamantan-1-yl)amino)-1-oxopropan-2-yl)-N—((R)-1-(2-(2,2,2-trifluoroethoxy)thiazol-5-yl)ethyl)pyrrolidine-3-carboxamide], for which the pIC50 was no less than 7.00.

Regarding `C[C@@H](NC(=O)C1CC1c1ccc2cnn(C)c2c1)c1cc2cc(F)ccc2o1` (single isomer, unassigned) [Example 103B], the pIC50 was less than 5.00.

As to `C[C@@H](NC(=O)C1CC1c1nccn1Cc1ccccc1)c1ccc(OCC(F)(F)F)s1` (single isomer, unassigned) [Example 38A], the pIC50 is less than 5.00.

With `C[C@@H](NC(=O)C1CC1c1nc2cc(Cl)cnc2[nH]1)c1ccc(OCC(F)(F)F)s1` (single isomer, unassigned) [Example 85A], the pIC50 was 5.00 to 6.00.

For the molecule `C[C@@H](NC(=O)C1CC1c1nc2c(Cl)cccc2[nH]1)c1ccc(OCC(F)(F)F)s1` (single isomer, unassigned) [Example 122B], the pIC50 was 6.00 to 7.00.

Regarding `C[C@@H](NC(=O)[C@@H]1C[C@H]1c1nc2ccccc2[nH]1)c1ccc(C(=O)OC(C)(C)C)s1` [Example 25B, Trans-5-((1R)-1-(2-(1H-benzo[d]imidazol-2-yl)cyclopropane-1-carboxamido)ethyl)thiophene-2-carboxylic acid tert-butyl ester], the pIC50 was 5.00 to 6.00.

With `C[C@@H](NC(=O)C1CC1c1nc2cccnc2[nH]1)c1ccc(OCC(F)(F)F)s1` (single isomer, unassigned) [Example 35], the pIC50 was 5.00 to 6.00.

In the case of `C[C@@H](NC(=O)C1CC1c1nc2ccccc2[nH]1)c1ccc(C(=O)O)s1` (single isomer, unassigned) [Example 27], the pIC50 is less than 5.00.

As to `C[C@@H](NC(=O)[C@H]1C[C@@H]1c1nc2ccccc2[nH]1)c1ccc(C(=O)N2CCCC(F)C2)s1` (stereo partly drawn) [Example 95, (1S,2S)-2-(1H-benzo[d]imidazol-2-yl)-N-((1R)-1-(5-(3-fluoropiperidine-1-carbonyl)thiophen-2-yl)ethyl)cyclopropane-1-carboxamide], the pIC50 was 5.00 to 6.00.

Take `C[C@@H](NC(=O)C1CC1c1ccccn1)c1ccc(OCC(F)(F)F)s1` (single isomer, unassigned) [Example 23B]: the pIC50 was less than 5.00.

`C[C@@H](NC(=O)C1CC1c1ccc2cnn(C)c2c1)c1ccc(OCC(F)(F)F)s1` (single isomer, unassigned) [Example 22B]: the pIC50 is 6.00 to 7.00.

Consider `C[C@@H](NC(=O)[C@H]1C[C@@H]1c1nc2ccccc2[nH]1)c1ccc2ccn(C)c2c1` [Example 86, (1S,2S)-2-(1H-benzo[d]imidazol-2-yl)-N—((R)-1-(1-methyl-1H-indol-6-yl)ethyl)cyclopropane-1-carboxamide], for which the pIC50 was 5.00 to 6.00.

Take `C[C@@H](NC(=O)C1CC1COc1ccc(F)cc1)c1cc2cc(F)ccc2o1` (single isomer, unassigned) [Example 112B]: the pIC50 was 6.00 to 7.00.

As for `CC(C)[C@@H](NC(=O)[C@H]1C[C@@H]1c1nc2ccccc2[nH]1)c1cc2ccc(F)cc2s1` [Example 120, (1S,2S)-2-(1H-benzo[d]imidazol-2-yl)-N—((R)-1-(6-fluorobenzo[b]thiophen-2-yl)-2-methylpropyl)cyclopropane-1-carboxamide], the pIC50 was 6.00 to 7.00.

In the case of `C[C@@H](NC(=O)C1CC1COc1ccc(F)cc1)c1cc2cc(F)ccc2o1` (single isomer, unassigned) [Example 112A], the pIC50 was 5.00 to 6.00.

`C[C@@H](NC(=O)C1CC1c1ncc2ccccn12)c1cc2cc(F)ccc2o1` (single isomer, unassigned) [Example 117B]: the pIC50 was 5.00 to 6.00.

Take `C[C@@H](NC(=O)[C@@H]1CCN(c2nc3ccccc3s2)C1)c1cc2cc(F)ccc2o1` [Example 126, (R)-1-(benzo[d]thiazol-2-yl)-N—((R)-1-(5-fluorobenzofuran-2-yl)ethyl)pyrrolidine-3-carboxamide]: the pIC50 is 6.00 to 7.00.

In the case of `C[C@@H](NC(=O)C1CC1C(=O)Nc1cccc(C(F)(F)F)c1)c1cc2cc(F)ccc2o1` (single isomer, unassigned) [Example 130B], the pIC50 was 6.00 to 7.00.

Take `C[C@@H](NC(=O)[C@H]1C[C@@H]1c1nc2ccccc2[nH]1)c1ccc(C(=O)N2CCCCCC2)s1` [Example 87, (1S,2S)—N—((R)-1-(5-(azepane-1-carbonyl)thiophen-2-yl)ethyl)-2-(1H-benzo[d]imidazol-2-yl)cyclopropane-1-carboxamide]: the pIC50 is 5.00 to 6.00.

In the case of `C[C@@H](NC(=O)[C@H]1C[C@@H]1c1nc2ccccc2[nH]1)c1nc(C2CC2)no1` [Example 72, (1S,2S)-2-(1H-benzo[d]imidazol-2-yl)-N—((R)-1-(3-cyclopropyl-1,2,4-oxadiazol-5-yl)ethyl)cyclopropane-1-carboxamide], the pIC50 was 5.00 to 6.00.

As to `COc1ccc2[nH]c(C3CC3C(=O)N[C@H](C)c3ccc(OCC(F)(F)F)s3)nc2c1` (single isomer, unassigned) [Example 71B], the pIC50 was 6.00 to 7.00.

Regarding `C[C@@H](NC(=O)[C@@H]1CCN(c2ccc(C(F)(F)F)cn2)C1)c1cc2cc(F)ccc2o1` [Example 121, (R)—N—((R)-1-(5-fluorobenzofuran-2-yl)ethyl)-1-(5-(trifluoromethyl)pyridin-2-yl)pyrrolidine-3-carboxamide], the pIC50 is less than 5.00.

On to `C[C@@H](NC(=O)[C@H]1C[C@@H]1c1nc2ccccc2[nH]1)c1ccc(C2CC2)o1` [Example 74, (1S,2S)-2-(1H-benzo[d]imidazol-2-yl)-N—((R)-1-(5-cyclopropylfuran-2-yl)ethyl)cyclopropane-1-carboxamide], for which the pIC50 is 6.00 to 7.00.

`CC(NC(=O)[C@H]1C[C@@H]1c1nc2ccccc2[nH]1)c1cc2ncccc2o1` (stereo partly drawn) [Example 80, (1S,2S)-2-(1H-benzo[d]imidazol-2-yl)-N-(1-(furo[3,2-b]pyridin-2-yl)ethyl)cyclopropane-1-carboxamide]: the pIC50 was 5.00 to 6.00.

These data come from patent US11420944B2, “Voltage-dependent t-type calcium channel blocker” (Nippon Chemiphar Co., Ltd., priority 2016, dated 2022).
